A short description of series [1]: water solubility of stilbene and carbamate prodrug (salts and free base). The class given is physicochemical. Conditions: for solubility: water, 20 °C, 20° C. As for the experimental part:
Stilbene prodrugs may be made by attaching to a stilbene derivative of interest (e.g. a stilbene derivative with anti-tumor activity), chemical groups (or moieties) that render the stilbene derivative more water soluble than before such a modification is carried out. By “water soluble” we mean that more than 20 mg compound can be fully dissolved in 1 mL of water. Further, the chemical groups that are attached to the stilbene derivative to make the derivative water soluble are labile (i.e. removable) in that, upon exposure to in vitro or in vivo hydrolyzing conditions, the chemical groups are removed or dissociated from the stilbene derivative by hydrolysis, releasing the active, anti-tumor form of the stilbene derivative. The chemical groups which are attached may themselves be biologically active, and are, at least, not biologically injurious to cells or mammals. […] As illustrated, morfolinoethyl-urea, morfolinoethyl-carbamate and triethylene glycol (TEG) groups (5a, 5b, 5c, respectively) may be used for this purpose.

Series [2] deals with SNU423 hepatocellular carcinoma cells. As to the kind of experiment: Alamar Blue cell growth inhibition, SNU423. The series is classed as cell-based. The essentials:
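Cells at 50% confluence were treated for 48 h in triplicate with 0-10 μM compound or 0.1% DMSO vehicle. Alamar Blue was added at 1/10 volume for 2 h, and absorbance at 570 and 600 nm gave % growth via the manufacturer's extinction-coefficient formula relative to vehicle controls.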
On the technique in general: Resazurin is reduced to fluorescent resorufin, in cell work by metabolically active cells.

The next series has as its system UCI101 cells. The series can be described thus: cell cycle analysis (propidium iodide, FACScan), UCI101. The series is classed as cell-based. The protocol: Cells were stained with propidium iodide and analyzed with FACScan. Both 5b at 3 μM and stilbene 4a at 30 nM induce a subG0/1 population that represents the dead population. At higher concentrations of either compound, nearly all cells are dead.
(a) In vitro sensitivity of UCI101 cells toward three potential stilbene prodrugs, 5a-c, was tested in 96-well plates using Alamar Blue™ assays to determine cell growth inhibition. […] (b) 5b induces cell cycle change and apoptosis in UCI101 cells. […] A subG0/1 population, representing apoptotic cells, appeared along with a decrease of the G1/G2 ratio after cells were treated with 3 μM 5b. […] (c) Cells treated with stilbene 4a and 5b were stained with phospho-histone 3B, a mitotic marker. The positive signals of phospho-histone 3B were shown in green and nuclei were stained with DAPI in blue. […] (d) In vivo efficacy of 5b compared with stilbene 4a. Nude mice were injected with UCI101 ovarian cancer cells and treated with 7 doses of 5b,c or stilbene 4a every 2-3 days. Tumor volume was calculated and plotted against days.

The subject of series [3] is Hep3B hepatocellular carcinoma cells (xenograft). As to the kind of experiment: DCE-MRI tumor vascular perfusion, Hep3B xenograft. The series is classed as in vivo, mice. Conditions: 50 mg/kg intraperitoneally. The protocol:
Mice with established tumor xenografts were used for this study. […] Tumor and kidney, as the representative normal organ, were marked by arrowheads. […] Mice were then left overnight to wash out gadolinium and treated with stilbene 4a at 50 mg/kg intraperitoneally. 4 hours after stilbene injection, mice were imaged with the same protocol. […] Only a small amount of residual gadolinium was still in the tissues.
In order to establish that stilbene suppresses tumor perfusion by damaging tumor endothelial cells, we first incubated human vascular endothelial cells with various concentrations of stilbenes in vitro. After 24 hours of incubation, cells were then fixed with 2% paraformaldehyde and stained with anti-tubulin antibody to examine the tubulin disruption and with DAPI to analyze nuclear fragmentation. Dynamic-contrast enhanced magnetic resonance imaging (MRI) scanning was used to investigate tumor perfusion in vivo. Immunodeficient nude mice were first injected with Hep3B hepatocellular carcinoma cells subcutaneously. […] A region of interest (ROI) was chosen from the scan and the MRI signal in the ROI was plotted against time and the initial steepest slope of the curve was calculated to represent the maximal perfusion of the ROI. […] The perfusion rate of the muscle region was normalized and set at 100% and the rate of perfusion in tumor was calculated versus the muscle. […]

Read-outs that look alike come from different tables or passages of the source.

In general, solubility refers to how much of the substance goes into solution per volume.

As to `COc1cc(/C=C\c2ccc(OC)c(N)c2)cc(OC)c1` [4a, (Z)-5-[2-(3,5-Dimethoxy-phenyl)-vinyl]-2-methoxy-phenylamine], the “water solubility (in words)” value in series [1] is recorded as “limited solubility”. The solubility in series [1] (HCl salt, read-out: water solubility, x HCl) was 6000 µg/mL; in series [1] (free base, read-out: water solubility, Free base), less than 1000 µg/mL; in series [1] (oxalate salt, read-out: water solubility, x (COOH)2) it was less than 1000 µg/mL. In addition, the “relative potency” value in series [2] (SNU423) is “much more potent than the trans counterparts”. Besides, the “effective concentration, blocking cell proliferation” value in series [2] (SNU423, 48 hours) stood at 0.03 µM. For the same compound, the “cell cycle effect” value in the series with UCI101 cells (4a at 30, 100 nM, 5b at 1, 3, 10 μM) is “induced G2/M cell cycle arrest and accumulation of the subG1/0 population”. The “concentration inducing a subG0/1 (dead) population” value with UCI101 cells (24 hours) is given as 30 nM. The normal vascular perfusion entry in series [3] is given as “without compromising normal vascular perfusion”. Besides, in series [3] (4 hours after injection), the “tumor vascular perfusion (gadolinium enhancement)” value is on record as “significantly less gadolinium enhancement”.
